# Test: effect of including leucine in the patch formula on appetite levels
# Assay type: in vivo
# Settings: inclusion of leucine in the formula of the adhesive matrix; found experimentally, no method or data given
# Text: In an exemplary embodiment, adhesive matrix 130 may further include an anti-inflammatory. While dimethyl sulfoxide and menthol may in and of themselves act as anti-inflammatories, additional ingredients acting as dedicated anti-inflammatories may be added. For the purposes of this specification, “anti-inflammatory” is used to mean any medication, compound, or ingredient recognized by the FDA as useful for anti-inflammatory purposes. Yet further, adhesive matrix 130 may include amino acids. Leucine is an exemplary amino acid which may be incorporated into the formula. Leucine may function in the patch to synthesize sterols, and may also act to regulate blood pressure, energy levels, and hormone secretion. […] Adhesive matrix 130 may further comprises glycerin. Glycerin may act as a plasticizer and humectant to preserve the flexibility and formulaic integrity of adhesive matrix 130, and may also provide additional benefits of relieving skin irritation and reducing interference with skin oils when transdermal patch 100 is placed in contact with skin.
compound,measurement,value
"CC(C)C[C@H](N)C(=O)O [leucine, Leucine]",appetite levels,reduce appetite levels

# From patent US20250090477A1, “TRANSDERMAL PATCH PROVIDING IMPROVED PERMEABILITY AND COMPOSITION” (HydraPatch Inc., priority 2019, published 2025)
